Entries after “also recorded” stand apart in the source; their conditions may differ. Square brackets hold non-standard residues; d marks the D form. Peptide text beside a SMILES is read from it. Lys(N3) = [N-]=[N+]=NCCCC[C@H](N)C(=O)O
Assays:
[1] = target: T1, Aβ42 (Homo sapiens, UniProt P05067); test: UV-Vis of conjugates with equimolar Aβ42; format: biochemical; settings: 5 μM conjugate, equimolar Aβ42, 10 mM phosphate buffer pH 7.4, 0, 24, 48 and 120 h
Method: (§1) The UV‐Vis spectra of porphyrin‐peptide conjugates (5 μM) were recorded in the presence of an equimolar ration of Aβ42 monomers at 0, 24, 48 and 120 h (Figure 2S). […] Therefore, the interaction of the peptide‐porphyrin conjugates with Aβ was further studied using CD spectroscopy. The Aβ42 aggregation process was monitored either in the absence or in the presence of an equimolar amount of the conjugated peptides. A series of CD control experiments were preventively carried out to assess the propensity of the porphyrin‐peptide conjugates to adopt a β‐sheet conformation. The corresponding CD curves are shown in the supplementary material (Figure 3S). […] We then evaluated the ability of the porphyrin‐peptide conjugates to affect the Aβ42’s aggregation process. This was accomplished by running a series of CD experiments on the binary systems in the same experimental conditions as the control CD measurements. A 5 μM Aβ42 sample was used as a positive control of the aggregation process (Figure 3, panel a). In this case, the curve profiles indicate that at 0 h, Aβ42 is predominantly in the random coil conformation, as evidenced by the negative ellipticity around 200 nm. […] The typical dichroic profile characterized by a negative ellipticity at λ=222 nm and a positive band at λ=200 is indicative of this event (Figure 3, panel a).
(§2) Spectra were recorded on a Jasco V‐670 Spectrophotometer at room temperature. All measurements were performed in the 300–650 nm wavelength region, in a 10 mM phosphate buffer solution at pH 7.4 using a 1 cm path length quartz cell. The spectra of all the peptide‐porphyrin conjugates, either in the absence or in the presence of equimolar Aβ42, were acquired at 5 μM. In some cases, the same sample solution was used to run the CD spectra. The final concentrations of Aβ42 and peptide conjugates were 5 μM (1 : 1 molar ratio).

[2] = UV-Vis self-aggregation of the conjugates; format: physicochemical; settings: UV-Vis 300–650 nm, 5 μM, 10 mM phosphate buffer pH 7.4, room temperature, 0–120 h
Method: We first studied the effects of peptide conjugation on the porphyrin chromophore, by UV‐Vis spectra in the region between 300–650 nm. The spectra were recorded using a solution of 5 μM Porphyrin‐peptide conjugate in 10 mM phosphate buffer pH 7.4. The UV‐Vis profile of the porphyrin precursor MCPTPyP, recorded at the same concentration, is also shown for the sake of comparison (Figure 1).
(§3) Peptide conjugation influences the spectral features of the porphyrin chromophore as evidenced by the red shift in the absorption maximum in the region of the Soret band region. The Q bands are also affected, particularly in the Cu‐Ph‐Pep and Zn‐Ph‐Pep compounds (Figure 1). In this case the presence of a metal ion within the porphyrin's core might contribute to the observed spectral profile of these compounds. […] The fluorescence spectra of the investigated systems were also acquired in view of the interaction of the studied conjugates with cells (see below biological section).[41] The fluorescence spectra were recorded with the photoexcitation at 425±5 nm, in 10 mM phosphate buffer pH 7.4 and 5 μM concentration. The emission spectrum of the porphyrin precursor MCPTPyP ( Ph ) was also obtained for the sake of comparison.
as §2

[3] = CD control: β-sheet propensity of the conjugates alone; format: physicochemical; settings: 10 mM phosphate buffer pH 7.4, room temperature, up to 120 h
Method: as §1
Spectra were recorded on a J‐810 spectrometer (Jasco, Japan) under a constant flow of N2 at room temperature. The CD measurements were performed in the wavelength regions (190–260 nm, 195–350 nm and 350–500 nm) using a 1 cm path length quartz cell. All aggregation kinetics were monitored up to 120 hours. The CD spectra were recorded for Aβ42 (5 μM and 20 μM) monomer in the absence or in the presence of porphyrin‐peptide conjugates (5 μM and 20 μM for the 1 : 1 molar ratios). Monomerized samples of Aβ42 (5 μM and 20 μM) were solubilized in 50 μL of NaOH 20 mM (2,5 %) and after were diluted with 1950 μL of 10 mM phosphate buffer at pH 7.4 pure or containing the solubilized conjugates.

[4] = Porphyrin fluorescence in buffer; format: physicochemical; settings: 5 μM, 10 mM phosphate buffer pH 7.4, excitation 425 nm; vs pristine MCPTPyP
From the text: as §3
Spectra were recorded on a Horiba Fluoro‐max‐4 spectrofluorometer from 440–800 nm in 1 nm steps, at an excitation wavelength λexc=425 nm, at room temperature. The final fluorescence spectra represent averages of at least three measurements. Bandwidths of 5 nm for both excitation and emission were used. The sample of the compound used to record absorption spectra were the same as those for the CD spectra.

[5] = target: T1, Aβ42; test: Grating-Coupled Interferometry (GCI) binding to immobilized Aβ42; settings: GCI fit quality parameter
Method: The Grating‐Coupled Interferometry (GCI) is a widely used analytical technique for characterizing intermolecular interactions. It allows quantitative measurements of both the affinity and the kinetics of the binding events. This high sensitivity label‐free method was exploited to measure the interactions of Aβ42 with Cu‐Ph‐Pep , Ph‐Pep , and Zn‐Ph‐Pep (Figure 5S). Control experiments with pristine MCPTPyP and the peptide GPGKLVFF ( Pep ) were carried out for comparison. The calculated association and dissociation kinetic constants (kon and koff, respectively) and the thermodynamic binding constant (KD), are summarized in Table 1. The obtained values indicate that all the conjugates show good affinities with Aβ42. It is also clear from Table 1 that the peptide moiety is fundamental for the molecular recognition of the Aβ42 peptide.[48] […] Nevertheless, it is important to emphasize that the interaction with Aβ42 is primarily mediated by the peptide rather than by the porphyrin macrocycle. We next investigated whether these peptide derivatives could be employed as molecular probes for the detection of Aβ42 aggregated species. A new set of CD experiments was then carried out with Aβ42 at 20 μM both in the absence and in the presence of the porphyrin‐peptide conjugates at 1 : 1 molar ratio in the UV (195–350) and Visible (350–500) regions. […] The signal rapidly evolved toward the typical β‐sheet profile (already within 24 h) with a single minimum at 216 nm, an x‐axis intercept at 202 nm and a maximum shift at a wavelength 195 nm.[49] […] For the sake of comparison, the CD spectra of the porphyrin‐peptide conjugates at 20 μM were also recorded in the same experimental conditions, both in the far‐UV and Visible regions (Figure 6S).
The experiments were performed on a Creoptix WAVE system (Creoptix). Borate buffer (100 mM sodium borate pH 9.0, 1 M NaCl) was used for chip conditioning. Aβ42 peptide (20 μg/ml in Na Acetate pH 4.5) was immobilized on 4PCH WAVE chips (quasiplanar polycarboxylate surface; Creoptix) according to the manufacturer instructions at a final density of 1910±40 pg/mm^2. Single‐cycle sequential injections of dilution series for each Porphyrin‐Peptide conjugates in running buffer (PBS, 0.005 % Tween 20, 1 % DMSO, 0.2 mg/ml BSA) were performed at 25 °C, using a flow rate of 100 μl/min. In details, for the conjugate Cu‐Ph‐Pep , 1 : 2 dilution series starting from 200 μM were injected for 10 s association time, 45 s dissociation time, followed by a dissociation time of 600 s for the last higher concentration injection. Finally, for the conjugates Ph‐Pep and Zn‐Ph‐Pep , 1 : 2 dilution series starting from 50 μM and 100 uM, respectively, were injected for 30 s association time, 45 s dissociation time, followed by a dissociation time of 600 s for the last higher concentration injection. Blank injections were used for double referencing and a DMSO calibration curve for bulk correction. Analysis and correction of the obtained data were performed using the Creoptix WAVE control software (correction applied: X and Y offset; DMSO calibration; double referencing). Mass transport binding models with bulk correction were used to fit all experiments. All the experiments have been performed at least in triplicate.
Figure 5S. Quantitative binding kinetics of Aβ42 vs a) MCPTPyP; b) Cu-Ph-Pep; c) Ph-Pep; d) Zn-Ph-Pep; and e) Pep measured by GCI. All curves were blank subtracted. Experiments were performed in triplicate. All the quality assessments (i.e., χ2 shown in Table 1 of the main text , parameter errors, and residual plots were acceptable; the sensorgrams had sufficient curvatures an d the kinetic constant k off were within the measurable range) were fulfilled. Descriptive Statistical Analysis was employed to calculate the mean of the obtained values of k on, koff and KD as a measure of central tendency and standard deviations of the former values were computed as a measure of dispersion.
Figure 6S. […]

[6] = system: full-length Aβ; settings: ref [44], [45]; cited from earlier work
From the text: In the present work we employed UV‐Vis, CD spectroscopy and Bis‐Ans fluorescence to explore the molecular processes underlying the interactions occurring between Aβ and the porphyrin‐peptide conjugates.

T1 sequence (P05067 672-713 limits assumed): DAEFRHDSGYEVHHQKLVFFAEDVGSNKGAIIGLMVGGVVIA

Row | Molecule | UV-Vis spectral change in presence of Aβ42 [1] | self-aggregation [2] | propensity to adopt β-sheet conformation (conjugate alone) [3] | fluorescence emission intensity [4] | χ^2 (average of the squared residuals, fitting confidence) [5] | recognition of full-length Aβ [6]
1 | COC(=O)[C@H](Cc1cn(CCCC[C@H](NC(=O)CNC(C)=O)C(=O)N2CCC[C@H]2C(=O)NCC(=O)N[C@@H](CCCCN)C(=O)N[C@@H](CC(C)C)C(=O)N[C@H](C(=O)N[C@@H](Cc2ccccc2)C(=O)N[C@@H](Cc2ccccc2)C(N)=O)C(C)C)nn1)NC(=O)c1ccc(-c2c3nc(c(-c4cc[n+](C)cc4)c4ccc([nH]4)c(-c4cc[n+](C)cc4)c4nc(c(-c5cc[n+](C)cc5)c5ccc2[nH]5)C=C4)C=C3)cc1 [Cu‐Ph‐Pep] | minor variations in the spectral profiles; also recorded: observable absorbance diminution | absence of significant self‐aggregation phenomena | can fairly adopt β‐sheet conformation over time | not fluorescent | 0.76±0.07 | 
2 | CC(=O)NCC(=O)N[C@@H](CCCCN=[N+]=[N-])C(=O)N1CCC[C@H]1C(=O)NCC(=O)N[C@@H](CCCCN)C(=O)N[C@@H](CC(C)C)C(=O)N[C@H](C(=O)N[C@@H](Cc1ccccc1)C(=O)N[C@@H](Cc1ccccc1)C(N)=O)C(C)C [Pep] (Ac-G[Lys(N3)]PGKLVFF-NH2) |  |  |  |  | 0.79±0.08 | 
3 | COC(=O)[C@H](Cc1cn(CCCC[C@H](NC(=O)CNC(C)=O)C(=O)N2CCC[C@H]2C(=O)NCC(=O)N[C@@H](CCCCN)C(=O)N[C@@H](CC(C)C)C(=O)N[C@H](C(=O)N[C@@H](Cc2ccccc2)C(=O)N[C@@H](Cc2ccccc2)C(N)=O)C(C)C)nn1)NC(=O)c1ccc(-c2c3nc(c(-c4cc[n+](C)cc4)c4ccc([nH]4)c(-c4cc[n+](C)cc4)c4nc(c(-c5cc[n+](C)cc5)c5ccc2[nH]5)C=C4)C=C3)cc1 [Ph‐Pep] | minor variations in the spectral profiles | absence of significant self‐aggregation phenomena | can fairly adopt β‐sheet conformation over time | somewhat decreased | 0.71±0.04 | 
4 | KLVFF [well-known hydrophobic core Aβ16–20 (KLVFF)] |  |  |  |  |  | can recognize and co‐assemble with full‐length Aβ
